Active and inactive are the calls of the source. No cut-off for these calls is given here.
What was measured:
Colon 26 [1] = test: Cytotoxicity against mouse Colon 26 cells at 100 uM after 48 hrs by WST-8 assay; assay type: functional, cell-based
HL-60 [2] = test: Induction of apoptosis in human HL60 cells assessed as activation of caspase 3 at 100 uM after 4 to 6 hrs by immunoblotiing; assay type: functional, cell-based
Vero = test: Cytotoxicity against african green monkey Vero cells after 48 hrs by WST-8 assay; assay type: functional, cell-based; details: Chlorocebus sabaeus
Spodoptera litura [3] = test: Insecticidal activity against cutworms assessed as number of weight reduced larvae at 21 ug, po for a day followed by rearing on normal diet measured on day 5 (reference value: 8.7 no_unit); assay type: functional
Spodoptera litura [4] = test: Insecticidal activity against cutworms assessed as number of weight reduced larvae at 21 ug, po for a day followed by rearing on normal diet measured on day 2 (reference value: 10 no_unit); assay type: functional
Colon 26 [5] = test: Cytotoxicity against mouse Colon 26 cells after 48 hrs by WST-8 assay; assay type: functional, cell-based; details: Colon 26, 48 h
Spodoptera litura [6] = test: Insecticidal activity against cutworms assessed as number of weight reduced larvae at 21 ug, po for a day followed by rearing on normal diet measured on day 3 (reference value: 10 no_unit); assay type: functional
Spodoptera litura [7] = test: Insecticidal activity against cutworms assessed as number of weight reduced larvae at 21 ug, po for a day followed by rearing on normal diet measured on day 7 (reference value: 6.3 no_unit); assay type: functional
[8] = Cytotoxicity against human HL60 cells after 48 hrs by WST-8 assay; assay type: functional, cell-based; details: HL-60, 48 h
Spodoptera litura [9] = test: Insecticidal activity against cutworms assessed as number of weight reduced larvae at 21 ug, po for a day followed by rearing on normal diet measured on day 1 (reference value: 10 no_unit); assay type: functional
Spodoptera litura [10] = test: Insecticidal activity against cutworms assessed as number of weight reduced larvae at 21 ug, po for a day followed by rearing on normal diet measured on day 4 (reference value: 10 no_unit); assay type: functional
Spodoptera litura [11] = test: Insecticidal activity against cutworms at 4 mg/disk by leaf dik assay; assay type: functional, organism-based
Spodoptera litura [12] = test: Insecticidal activity against cutworms assessed as number of weight reduced larvae at 21 ug, po for a day followed by rearing on normal diet measured on day 6 (reference value: 6.7 no_unit); assay type: functional
Culex pipiens [13] = test: Insecticidal activity against mosquito larvae at 1.2 ug/insect administered as injection; assay type: functional, organism-based
Culex pipiens [14] = test: Insecticidal activity against mosquito larvae at 50 uM; assay type: functional, organism-based
HL-60 [15] = test: Induction of apoptosis in human HL60 cells assessed as DNA fragmentation at 100 uM after 4 to 6 hrs by electrophoresis; assay type: functional, cell-based
Musca domestica = test: Insecticidal activity against adult housefly at 44 ug/insect administered topically; assay type: functional, organism-based
[16] = Cytotoxicity against Sf9 cells after 48 hrs by WST-8 assay; assay type: functional, cell-based; details: Spodoptera frugiperda, Sf9, 48 h
Spodoptera litura [17] = test: Insecticidal activity against cutworms assessed as growth inhibition at 21 ug, po for a day followed by rearing on normal diet measured up to 7 days; assay type: functional, organism-based

| SMILES | Activity (Colon 26 [1]) | IC50 (Vero) [µM] | IC50 (Colon 26 [5]) [µM] | IC50 [8] [µM] | Activity (Culex pipiens [13]) | Activity (Culex pipiens [14]) | Activity (Musca domestica) | IC50 [16] [µM] | also measured |
| --- | --- | --- | --- | --- | --- | --- | --- | --- | --- |
| CC1(C)C(=O)CC(=O)C(C)(C)C1=O | inactive |  |  |  |  |  |  |  |  |
| C=C1CC[C@H]2C[C@@H]1C2(C)C | inactive |  |  |  |  |  |  |  |  |
| CC(C)C[C@H]1C[C@@]2(CC[C@H]3C[C@@H]2C3(C)C)OC2=C1C(=O)C(C)(C)C(=O)C2(C)C |  | 12.4 | 8.96 | 2.9 | inactive | inactive | inactive | 32.1 | Activity (HL-60 [2]): Active; Activity (Spodoptera litura [3]): 8.7; Activity (Spodoptera litura [4]): 10; Activity (Spodoptera litura [6]): 9.7; Activity (Spodoptera litura [7]): 7; Activity (Spodoptera litura [9]): 10; Activity (Spodoptera litura [10]): 9; Activity (Spodoptera litura [11]): inactive; Activity (Spodoptera litura [12]): 7.3; Activity (HL-60 [15]): Active; growth inhibition (GI) (Spodoptera litura [17]): Active |
| CC(C)C[C@@H]1C[C@@]2(CC[C@H]3C[C@@H]2C3(C)C)OC2=C1C(=O)C(C)(C)C(=O)C2(C)C |  | 8.39 | 13.6 | 3.67 | inactive | inactive | inactive | 63.5 |  |
| CCC[C@@H]1C[C@@]2(CC[C@H]3C[C@@H]2C3(C)C)OC2=C1C(=O)C(C)(C)C(=O)C2(C)C |  | 21.4 | 14.2 | 23.5 |  |  |  | 99.2 |  |
| CCC[C@H]1C[C@@]2(CC[C@H]3C[C@@H]2C3(C)C)OC2=C1C(=O)C(C)(C)C(=O)C2(C)C |  | 14.4 | 12.6 | 19.4 |  |  |  | 30.1 |  |

From ChEMBL document CHEMBL3351587, “Revised stereochemistry of ficifolidione and its biological activities against insects and cells” (J Nat Prod, 2015)
